# Data published in US10034861B2 (priority 2016, dated 2018).
# pIC50: −log10 of the molar value. Read-outs that look alike come from different tables or passages of the source.
# How the values were obtained:
# Format in all cases: biochemical
# PDE1A = PDE1A (Homo sapiens (Human), UniProt P54750); assay: biochemical
# Source text: (§1) Table 1 lists the IC50 value for inhibition of PDE1 by the compounds of the invention. […] PDE1 assays are described in the Experimental Section.
# PDE1C = PDE1C (Homo sapiens (Human), UniProt Q14123); assay: biochemical
# Sequence of PDE1C (Q14123 whole entry): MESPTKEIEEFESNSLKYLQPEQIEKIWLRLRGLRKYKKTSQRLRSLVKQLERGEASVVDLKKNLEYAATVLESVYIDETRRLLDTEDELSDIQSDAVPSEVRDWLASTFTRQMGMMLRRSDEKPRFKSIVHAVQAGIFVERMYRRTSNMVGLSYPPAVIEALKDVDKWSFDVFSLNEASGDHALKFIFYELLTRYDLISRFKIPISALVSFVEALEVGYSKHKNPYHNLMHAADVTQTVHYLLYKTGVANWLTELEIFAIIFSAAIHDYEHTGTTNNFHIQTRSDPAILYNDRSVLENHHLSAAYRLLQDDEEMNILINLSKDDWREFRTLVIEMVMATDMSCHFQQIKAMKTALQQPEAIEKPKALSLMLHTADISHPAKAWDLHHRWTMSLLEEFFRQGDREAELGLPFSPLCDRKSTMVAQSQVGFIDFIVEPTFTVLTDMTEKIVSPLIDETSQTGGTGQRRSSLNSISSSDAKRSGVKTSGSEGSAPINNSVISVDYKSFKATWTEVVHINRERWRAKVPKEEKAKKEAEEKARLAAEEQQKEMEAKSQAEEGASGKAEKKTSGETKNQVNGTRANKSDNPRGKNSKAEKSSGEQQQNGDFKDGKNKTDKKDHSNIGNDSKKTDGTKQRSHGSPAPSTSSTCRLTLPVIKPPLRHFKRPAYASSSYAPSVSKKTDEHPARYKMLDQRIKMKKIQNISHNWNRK
# Source text: as §1
# PDE1B = PDE1B (Homo sapiens (Human), UniProt Q01064); assay: PDE1 inhibition assay (PDE1B); details: 15 nM tritium labelled cAMP, 1 hr at room temperature, SPA beads; for pIC50: read-out: PDE1B, IC50
# Sequence of PDE1B (Q01064 whole entry): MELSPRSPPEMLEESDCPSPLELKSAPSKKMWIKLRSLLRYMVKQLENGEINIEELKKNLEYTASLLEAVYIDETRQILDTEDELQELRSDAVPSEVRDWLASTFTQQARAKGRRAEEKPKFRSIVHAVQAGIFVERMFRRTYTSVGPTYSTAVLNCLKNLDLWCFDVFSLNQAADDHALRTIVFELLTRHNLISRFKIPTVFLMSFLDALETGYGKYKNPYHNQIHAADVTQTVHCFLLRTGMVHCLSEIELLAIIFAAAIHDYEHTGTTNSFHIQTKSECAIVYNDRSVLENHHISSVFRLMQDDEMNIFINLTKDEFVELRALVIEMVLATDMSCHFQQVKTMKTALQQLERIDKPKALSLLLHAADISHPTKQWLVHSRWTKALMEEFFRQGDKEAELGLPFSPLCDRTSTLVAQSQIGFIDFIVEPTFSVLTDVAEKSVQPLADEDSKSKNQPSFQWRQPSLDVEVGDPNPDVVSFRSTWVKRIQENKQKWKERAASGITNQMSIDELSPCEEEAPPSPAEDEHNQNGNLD
# Source text: as §1
# [1] = 15 nM tritium labelled cAMP, 1 hr at room temperature, SPA beads
# Sequence of PDE1A (P54750 whole entry): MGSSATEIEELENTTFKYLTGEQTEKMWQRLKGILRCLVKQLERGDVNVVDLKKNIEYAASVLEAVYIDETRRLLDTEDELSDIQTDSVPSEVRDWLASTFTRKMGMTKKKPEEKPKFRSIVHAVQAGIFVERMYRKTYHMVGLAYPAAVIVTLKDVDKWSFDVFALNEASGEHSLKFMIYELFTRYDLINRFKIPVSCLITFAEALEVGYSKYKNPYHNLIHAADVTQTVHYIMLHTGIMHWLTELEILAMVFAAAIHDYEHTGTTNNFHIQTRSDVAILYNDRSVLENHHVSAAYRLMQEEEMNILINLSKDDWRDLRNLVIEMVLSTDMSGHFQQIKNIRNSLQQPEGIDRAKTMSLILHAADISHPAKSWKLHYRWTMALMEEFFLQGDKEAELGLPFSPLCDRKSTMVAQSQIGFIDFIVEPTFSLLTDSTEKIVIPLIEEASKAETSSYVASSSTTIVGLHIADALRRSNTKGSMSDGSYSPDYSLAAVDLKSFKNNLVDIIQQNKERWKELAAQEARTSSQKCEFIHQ
SMILES,pIC50 (PDE1A; [1]),pIC50 (PDE1C; [1]),pIC50 (PDE1B),pIC50 (PDE1A),pIC50 (PDE1C),"IC50 (PDE1B; PDE1B, IC50 (nM)) [nM]"
"CCOc1ncccc1-c1cc(NCc2cnn(C)c2)c2c(cnn2C(C)C)n1 [Example 25, 5-(2-ethoxy-3-pyridyl)-1-isopropyl-N-[(1-methylpyrazol-4-yl)methyl]pyrazolo[4,3-b]pyridin-7-amine]",7.25,6.82,8.34,,,
"Cc1nn(C(C)C)c2c(NCc3cnn(C)c3)cc(N3CC(C)OC3=O)nc12 (stereo not drawn) [Example 150, 3-[1-isopropyl-3-methyl-7-[(1-methylpyrazol-4-yl)methylamino]pyrazolo[4,3-b]pyridin-5-yl]-5-methyl-oxazolidin-2-one]",7.36,7.89,7.48,,,
"Cc1nn(C(C)C)c2c(NCc3cnn(C)c3)cc(-c3ccccc3)nc12 [Example 64, 1-isopropyl-3-methyl-N-[(1-methylpyrazol-4-yl)methyl]-5-phenyl-pyrazolo[4,3-b]pyridin-7-amine]",7.28,7.33,7.92,,,
"[2H]C([2H])([2H])C([2H])([2H])Oc1ncccc1-c1cc(NCc2cccnc2OC)c2c(n1)c(C)nn2C(C)C [Example 181, 5-(2-(ethoxy-d5)pyridin-3-yl)-1-isopropyl-N-((2-methoxypyridin-3-yl)methyl)-3-methyl-1H-pyrazolo[4,3-b]pyridin-7-amine]",,,,7.51,7.08,1.6
"CCOc1ncccc1-c1cc(NCc2nnc(C)s2)c2c(n1)c(C)nn2C(C)C [Example 33, 5-(2-ethoxy-3-pyridyl)-1-isopropyl-3-methyl-N-[(5-methyl-1,3,4-thiadiazol-2-yl)methyl]pyrazolo[4,3-b]pyridin-7-amine]",8.80,8.10,9.39,,,
"COc1ncccc1-c1cc(NCc2cnc(C)s2)c2c(n1)c(C)nn2C(C)C [Example 173, 1-isopropyl-5-(2-methoxy-3-pyridyl)-3-methyl-N-[(2-methylthiazol-5-yl)methyl]pyrazolo[4,3-b]pyridin-7-amine]",7.31,7.59,8.20,,,
"CCOc1ncccc1-c1cc(NCc2nccc(OC)n2)c2c(n1)c(C)nn2C(C)C [Example 189, 5-(2-ethoxy-3-pyridyl)-1-isopropyl-N-[(4-methoxypyrimidin-2-yl)methyl]-3-methyl-pyrazolo[4,3-b]pyridin-7-amine]",8.41,7.72,9.31,,,
"Cc1nn(C(C)C)c2c(NCc3cnn(C)c3)cc(-c3cccnc3OC(C)C)nc12 [Example 97, 5-(2-isopropoxy-3-pyridyl)-1-isopropyl-3-methyl-N-[(1-methylpyrazol-4-yl)methyl]pyrazolo[4,3-b]pyridin-7-amine]",8.85,8.04,9.22,,,
"CCOc1ncccc1-c1cc(NCc2cc(C)n(C)n2)c2c(n1)c(C)nn2C(C)C [Example 54, N-[(1,5-dimethylpyrazol-3-yl)methyl]-5-(2-ethoxy-3-pyridyl)-1-isopropyl-3-methyl-pyrazolo[4,3-b]pyridin-7-amine]",9.41,8.34,9.74,,,
"CCOc1ncccc1-c1cc(NCc2cccnc2OC)c2c(n1)c(C)nn2C1COC1 [Example 197, 5-(2-ethoxy-3-pyridyl)-N-[(2-methoxy-3-pyridyl)methyl]-3-methyl-1-(oxetan-3-yl)pyrazolo[4,3-b]pyridin-7-amine]",6.72,6.72,7.89,,,
"CCOc1ncccc1-c1cc(NCc2cccc(C)n2)c2c(n1)c(C)nn2C(C)C [Example 101, 5-(2-ethoxy-3-pyridyl)-1-isopropyl-3-methyl-N-[(6-methyl-2-pyridyl)methyl]pyrazolo[4,3-b]pyridin-7-amine]",7.70,7.37,9.05,,,
"CCOc1ncccc1-c1cc(NCc2cncnc2OC)c2c(n1)c(C)nn2C(C)C [Example 190, 5-(2-ethoxy-3-pyridyl)-1-isopropyl-N-[(4-methoxypyrimidin-5-yl)methyl]-3-methyl-pyrazolo[4,3-b]pyridin-7-amine]",7.13,7.03,8.10,,,
